Measurements reported in patent US20260022143A1, “Cyclic Peptide Inhibitors of IL-23” (JANSSEN PHARMACEUTICA NV, priority 2022, published 2026).
Starred links: 1 amine or outer side, 2 acyl side, 3 side chain; linkers in the order of their positions; H or OH if unused. Positions of bridges follow the written chain, without caps; N, C: chain ends. Non-standard residues stand in square brackets, D forms with d. Residues, ends and D or L forms follow the SMILES beside them. Groups on a side chain read outwards from the residue. *: point of attachment. X46 = CCCCCCCCCCCC(=O)N[C@@H](CCC(=O)NCCOCCOCC(=O)NCCOCCOCC(=O)NCCCC[C@H](NC(=O)COCCOCCNC(=O)COCCOCCNC(=O)CC[C@H](NC(=O)CCCCCCCCCCC)C(=O)O)C(=O)*)C(=O)O; Me3N+(CH2)2O(CH2)2O(CH2)2CO = C[N+](C)(C)CCOCCOCCC(=O)*; Trp(7-Me) = Cc1cccc2c(C[C@H](N)C(=O)O)c[nH]c12; Hexanoyl(6-NMe3+) = C[N+](C)(C)CCCCCC(=O)*; γGlu = O=C(O)[C@H](CCC(=O)[*:2])N[*:1]; 2Nal = N[C@@H](Cc1ccc2ccccc2c1)C(=O)O; X45 = COCC[N+](C)(C)CCc1cn(CC*)nn1; X22 = CN1CC[N+](C)(CCOCCOCC*)CC1; 3Pal = N[C@@H](Cc1cccnc1)C(=O)O; Cit = NC(=O)NCCC[C@H](N)C(=O)O; Lys(Me) = CNCCCC[C@H](N)C(=O)O; NMeK = CN[C@@H](CCCCN)C(=O)O; Pen = CC(C)(S)[C@H](N)C(=O)O; Lauroyl = CCCCCCCCCCCC(=O)*; Thp = NC1(C(=O)O)CCOCC1; X17 = C[N+]1(CC*)CCOCC1; Dap = NC[C@H](N)C(=O)O; X3 = C[N+](C)(C)CCCCC*; AEEA = NCCOCCOCC(=O)O; Me2NCH2CH2 = CN(C)CC*; Sar = CNCC(=O)O

Legend:
IL-23R = biological target: T1, IL-23R (Homo sapiens, UniProt Q5VWK5); assay: IL23R Reporter Assay; assay type: cell-based; settings: HEK293 cells containing IL-23R, IL-12RP1 and STAT-inducible firefly luciferase reporter; 10 ng/mL IL-23 (EC90); 5 h at 37° C.; read-out: IL23R Reporter Assay
T1 construct: host or cells: HEK293
T1 sequence (Q5VWK5 24-629): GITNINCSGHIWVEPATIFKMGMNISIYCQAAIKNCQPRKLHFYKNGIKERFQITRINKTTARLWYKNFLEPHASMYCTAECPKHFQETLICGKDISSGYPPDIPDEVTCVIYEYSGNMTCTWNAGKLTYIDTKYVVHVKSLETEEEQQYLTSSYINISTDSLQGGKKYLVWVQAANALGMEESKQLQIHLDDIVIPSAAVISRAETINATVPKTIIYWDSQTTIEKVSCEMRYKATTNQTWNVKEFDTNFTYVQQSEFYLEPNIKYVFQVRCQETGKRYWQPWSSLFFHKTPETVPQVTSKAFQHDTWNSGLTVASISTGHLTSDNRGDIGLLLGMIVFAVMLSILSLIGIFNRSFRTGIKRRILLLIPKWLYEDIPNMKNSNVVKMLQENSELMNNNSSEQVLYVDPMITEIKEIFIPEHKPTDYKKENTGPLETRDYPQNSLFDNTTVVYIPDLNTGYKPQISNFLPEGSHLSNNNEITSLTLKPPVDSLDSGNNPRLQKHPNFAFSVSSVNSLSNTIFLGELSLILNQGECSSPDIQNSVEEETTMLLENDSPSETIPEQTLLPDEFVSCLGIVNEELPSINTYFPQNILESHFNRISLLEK

[1] = Exposed Polar Surface Area (EPSA); assay type: physicochemical; settings: SFC on Chirex 3014 column; sample 1 mM DMSO stock; read-out: EPSA
Method in brief: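 Polarity measured by SFC on a Chirex 3014 column (35 °C, 4 mL/min) with methanol/ammonium formate in CO2 as gradient eluent. Retention times were normalised to EPSA (Å^2) against eight reference compounds.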

IC50 (IL-23R) | EPSA [1] | Structure (SMILES)
1.2 nM | 186 A^2 | CC(=O)NCCCC[C@@H]1NC(=O)[C@H](Cc2c[nH]c3c(C)cccc23)NC(=O)[C@H]([C@@H](C)O)NC(=O)[C@H](CC(N)=O)NC(=O)[C@@H](NC(=O)[C@@H](CCCNC(=N)N)NC(C)=O)C(C)(C)SSC(C)(C)[C@@H](C(=O)N[C@@H](Cc2ccc(OCC[N+]3(C)CCOCC3)cc2)C(=O)N[C@@H](Cc2ccc3ccccc3c2)C(=O)NC2(C(=O)N[C@@H](CCC(=O)O)C(=O)N[C@@H](CC(N)=O)C(=O)N[C@@H](Cc3cccnc3)C(=O)N(C)CC(N)=O)CCOCC2)NC1=O [compound 437] (Ac-[dR][Pen]NT[Trp(7-Me)]K(Ac)[Pen]Y(X17)[2Nal][Thp]EN[3Pal][Sar]-NH2; disulfide 2-7 (inferred))
5.4 nM | 158 A^2 | CC(=O)NCCCC[C@@H]1NC(=O)[C@H](Cc2c[nH]c3c(C)cccc23)NC(=O)[C@H]([C@@H](C)O)NC(=O)[C@H](CC(N)=O)NC(=O)[C@@H](NC(=O)CCCCC[N+](C)(C)C)C(C)(C)SSC(C)(C)[C@@H](C(=O)N[C@@H](Cc2ccc(OCCN(C)C)cc2)C(=O)N[C@@H](Cc2ccc3ccccc3c2)C(=O)NC2(C(=O)N[C@@H](CNC(C)=O)C(=O)N[C@@H](CC(N)=O)C(=O)N[C@@H](Cc3cccnc3)C(=O)N(C)CC(N)=O)CCOCC2)NC1=O [compound 103] ({Hexanoyl(6-NMe3+)}-[Pen]NT[Trp(7-Me)]K(Ac)[Pen]Y(Me2NCH2CH2)[2Nal][Thp][Dap](Ac)N[3Pal][Sar]-NH2; disulfide 1-6 (inferred))
3.8 nM | 197 A^2 | CC(=O)NCCCC[C@@H]1NC(=O)[C@H](Cc2c[nH]c3c(-c4cccc(NC(C)=O)c4)cccc23)NC(=O)[C@H]([C@@H](C)O)NC(=O)[C@H](CC(N)=O)NC(=O)[C@@H](NC(C)=O)C(C)(C)SSC(C)(C)[C@@H](C(=O)N[C@@H](Cc2ccc(OCCNC(=N)N)cc2)C(=O)N[C@@H](Cc2ccc3ccccc3c2)C(=O)NC2(C(=O)N[C@@H](CCCCN(C)C(C)=O)C(=O)N[C@@H](CC(N)=O)C(=O)N[C@@H](Cc3cccnc3)C(=O)N(C)CC(N)=O)CCOCC2)NC1=O [compound 515, MeCO-Pen(3)-N-T-7(3NAcPh)W-K(Ac)-Pen(3)-AEF(G)-2Nal-THP-K(NMeAc)-N-3Pya-Sar-CONH2]
3.5 nM | 163 A^2 | CC(=O)NCCCC[C@@H]1NC(=O)[C@H](Cc2c[nH]c3c(C)cccc23)NC(=O)[C@H]([C@@H](C)O)NC(=O)[C@H](CC(N)=O)NC(=O)[C@@H](NC(C)=O)C(C)(C)SSC(C)(C)[C@@H](C(=O)N[C@@H](Cc2ccc(OCCCCC[N+](C)(C)C)cc2)C(=O)N[C@@H](Cc2ccc3ccccc3c2)C(=O)NC2(C(=O)N[C@@H](CCCCNC(C)=O)C(=O)N[C@@H](CC(N)=O)C(=O)N[C@@H](Cc3cccnc3)C(=O)N(C)CC(N)=O)CCCCC2)NC1=O [compound 538, MeCO-Pen(3)-N-T-7MeW-K(Ac)-Pen(3)-TMAPF-2Nal-Achx-K(Ac)-N-3Pya-Sar-CONH2]
3.1 nM | 156 A^2 | CC(=O)NCCCC[C@@H]1NC(=O)[C@H](Cc2c[nH]c3c(C)cccc23)NC(=O)[C@H]([C@@H](C)O)NC(=O)[C@H](CC(N)=O)NC(=O)[C@@H](NC(C)=O)C(C)(C)SSC(C)(C)[C@@H](C(=O)N[C@@H](Cc2ccc(OCCOCCOCC[N+]3(C)CCN(C)CC3)cc2)C(=O)N[C@@H](Cc2ccc3ccccc3c2)C(=O)NC2(C(=O)N[C@@H](CCCCNC(C)=O)C(=O)N[C@@H](CC(N)=O)C(=O)N[C@@H](Cc3cccnc3)C(=O)N(C)CC(N)=O)CCOCC2)NC1=O [compound 434] (Ac-[Pen]NT[Trp(7-Me)]K(Ac)[Pen]Y(X22)[2Nal][Thp]K(Ac)N[3Pal][Sar]-NH2; disulfide 1-6 (inferred))

The remaining lines, values behind:

Structure (SMILES) | IC50 (IL-23R) | EPSA [1]
CCCCCCCCCCCC(=O)N[C@@H](CCC(=O)NCCOCCOCC(=O)NCCOCCOCC(=O)NCCCC[C@H](NC(=O)C1(NC(=O)[C@H](Cc2ccc3ccccc3c2)NC(=O)[C@H](Cc2ccc(OCCCCC[N+](C)(C)C)cc2)NC(=O)[C@H]2NC(=O)[C@H](CCCCN(C)C(C)=O)NC(=O)[C@H](Cc3c[nH]c4c(C)cccc34)NC(=O)[C@H]([C@@H](C)O)NC(=O)[C@H](CC(=O)N(C)C)NC(=O)[C@@H](NC(=O)CCOCCOCC[N+](C)(C)C)C(C)(C)SSC2(C)C)CCOCC1)C(=O)N[C@@H](CC(N)=O)C(=O)N[C@@H](Cc1cccnc1)C(=O)N(C)CC(=O)N(C)C)C(=O)O [compound 401, cPEG3aCO-Pen(3)-N(N(Me)2)-T-7MeW-K(NMeAc)-Pen(3)-TMAPF-2Nal-THP-K(PEG2PEG2gEC12)-N-3Pya-Sar-CON(Me)2] ({Me3N+(CH2)2O(CH2)2O(CH2)2CO}-[Pen]D(NMe2)T[Trp(7-Me)][Lys(Me)](Ac)[Pen]Y(X3)[2Nal][Thp]K([AEEA-AEEA-γGlu-Lauroyl])N[3Pal][Sar]-NMe2; disulfide 1-6) | 5.9 nM | 155 A^2
CC(=O)N(C)CCCC[C@H](NC(=O)C1(NC(=O)[C@H](Cc2ccc3ccccc3c2)NC(=O)[C@H](Cc2ccc(OCCCCC[N+](C)(C)C)cc2)NC(=O)[C@H]2NC(=O)[C@H](CCCNC(N)=O)NC(=O)[C@H](Cc3c[nH]c4c(C)cccc34)NC(=O)[C@H]([C@@H](C)O)NC(=O)[C@H](CC(=O)N(C)C)NC(=O)[C@@H](NC(=O)CCOCCOCC[N+](C)(C)C)C(C)(C)SSC2(C)C)CCOCC1)C(=O)N[C@@H](CC(N)=O)C(=O)N[C@@H](Cc1cccnc1)C(=O)N(C)CC(=O)N(C)C [compound 346, cPEG3aCO-Pen(3)-N(N(Me)2)-T-7MeW-Cit-Pen(3)-TMAPF-2Nal-THP-K(NMeAc)-N-3Pya-Sar-CON(Me)2] ({Me3N+(CH2)2O(CH2)2O(CH2)2CO}-[Pen]D(NMe2)T[Trp(7-Me)][Cit][Pen]Y(X3)[2Nal][Thp][Lys(Me)](Ac)N[3Pal][Sar]-NMe2; disulfide 1-6) | 1.8 nM | 158 A^2
CCCCCCCCCCCC(=O)N[C@@H](CCC(=O)NCCOCCOCC(=O)NCCOCCOCC(=O)NCCCC[C@H](NC(=O)COCCOCCNC(=O)COCCOCCNC(=O)CC[C@H](NC(=O)CCCCCCCCCCC)C(=O)O)C(=O)NCCOCCOCC(=O)NCCOCCOCC(=O)NCCCC[C@@H](C(N)=O)N(C)C(=O)[C@H](Cc1cccnc1)NC(=O)[C@H](CC(N)=O)NC(=O)[C@H](CCCCN(C)C(C)=O)NC(=O)C1(NC(=O)[C@H](Cc2ccc3ccccc3c2)NC(=O)[C@H](Cc2ccc(OCCCCC[N+](C)(C)C)cc2)NC(=O)[C@H]2NC(=O)[C@H](CCCCNC(C)=O)NC(=O)[C@H](Cc3c[nH]c4c(C)cccc34)NC(=O)[C@H]([C@@H](C)O)NC(=O)[C@H](CC(=O)N(C)C)NC(=O)[C@@H](NC(=O)CCOCCOCC[N+](C)(C)C)C(C)(C)SSC2(C)C)CCOCC1)C(=O)O [compound 372, cPEG3aCO-Pen(3)-N(N(Me)2)-T-7MeW-K(Ac)-Pen(3)-TMAPF-2Nal-THP-K(NMeac)-N-3Pya-NMeK(PEG2PEG2K(PEG2PEG2gEC12)2)-CONH2] ({Me3N+(CH2)2O(CH2)2O(CH2)2CO}-[Pen]D(NMe2)T[Trp(7-Me)]K(Ac)[Pen]Y(X3)[2Nal][Thp][Lys(Me)](Ac)N[3Pal][NMeK]([AEEA-AEEA-X46])-NH2; disulfide 1-6) | 20 nM | 203 A^2
CC(=O)N(C)CCCC[C@H](NC(=O)C1(NC(=O)[C@H](Cc2ccc3ccccc3c2)NC(=O)[C@H](Cc2ccc(OCCCCC[N+](C)(C)C)cc2)NC(=O)[C@H]2NC(=O)[C@H](C)NC(=O)[C@H](Cc3c[nH]c4c(C)cccc34)NC(=O)[C@H]([C@@H](C)O)NC(=O)[C@H](CC(=O)N(C)C)NC(=O)[C@@H](NC(=O)CCOCCOCC[N+](C)(C)C)C(C)(C)SSC2(C)C)CCOCC1)C(=O)N[C@@H](CC(N)=O)C(=O)N[C@@H](Cc1cccnc1)C(=O)N(C)CC(=O)N(C)C [compound 492, cPEG3aCO-Pen(3)-N(N(Me)2)-T-7MeW-A-Pen(3)-TMAPF-2Nal-THP-K(NMeAc)-N-3Pya-Sar-CON(Me)2] ({Me3N+(CH2)2O(CH2)2O(CH2)2CO}-[Pen]D(NMe2)T[Trp(7-Me)]A[Pen]Y(X3)[2Nal][Thp][Lys(Me)](Ac)N[3Pal][Sar]-NMe2; disulfide 1-6) | 6.4 nM | 165 A^2
COCC[N+](C)(C)CCc1cn(CCOc2ccc(C[C@H](NC(=O)[C@H]3NC(=O)[C@H](CCCCN(C)C(C)=O)NC(=O)[C@H](Cc4c[nH]c5c(C)cccc45)NC(=O)[C@H]([C@@H](C)O)NC(=O)[C@H](CC(=O)N(C)C)NC(=O)[C@@H](NC(=O)CCOCCOCC[N+](C)(C)C)C(C)(C)SSC3(C)C)C(=O)N[C@@H](Cc3ccc4ccccc4c3)C(=O)NC3(C(=O)N[C@@H](CCCCN(C)C(C)=O)C(=O)N[C@@H](CC(N)=O)C(=O)N[C@@H](Cc4cccnc4)C(=O)N(C)CC(=O)N(C)C)CCOCC3)cc2)nn1 [compound 285, cPEG3aCO-Pen(3)-N(N(Me)2)-T-7MeW-K(NMeAc)-Pen(3)-Y(OTzlChmPEG)-2Nal-THP-K(NMeAc)-N-3Pya-Sar-CON(Me)2] ({Me3N+(CH2)2O(CH2)2O(CH2)2CO}-[Pen]D(NMe2)T[Trp(7-Me)][Lys(Me)](Ac)[Pen]Y(X45)[2Nal][Thp][Lys(Me)](Ac)N[3Pal][Sar]-NMe2; disulfide 1-6) | 3.8 nM | 148 A^2
